This passage reports EC50 results from patent US20130302282A1, “Inhibitors of Hepatitis C Virus” (priority 2010, published 2013).

Where two headings read alike, the source gives them in different places. Bounds are passed on as bounds.

In this assay the test system is 1b_Huh-Luc/Neo-ET cell line (bicistronic genotype 1b replicon in Huh 7 cells). The assay is described as follows: HCV 1b replicon assay, luciferase readout. The settings on record: Hepatitis C virus. Type of assay: cell-based, HCV genotype 1b. How it is done: Biological activity of the compounds of the invention was determined using an HCV replicon assay. The 1b_Huh-Luc/Neo-ET cell line persistently expressing a bicistronic genotype 1b replicon in Huh 7 cells was obtained from ReBLikon GMBH. This cell line was used to test compound inhibition using luciferase enzyme activity readout as a measurement of compound inhibition of replicon levels.
On Day 1 (the day after plating), each compound is added in triplicate to the cells. Plates incubated for 72 […] prior to running the luciferase assay. Enzyme activity was measured using a Bright-Glo Kit (cat. number E2620) manufactured by Promega Corporation. The following equation was used to generate a percent control value for each compound.
%Control=(Average Compound Value/Average Control)*100
The EC50 value was determined using GraphPad Prism and the following equation:
Y=Bottom+(Top−Bottom)/(1+10̂((LogIC50−X)*HillSlope))
EC50 values of compounds are repeated several times in the replicon assay.

[1] abbreviates: Huh-7, 1b_Huh-Luc/Neo-ET cell line, read-out: EC50, half-maximal inhibition of HCV 1b replication.
Setting [2] is: Huh-7, class symbol, HCV genotype 1b replicon, read-out: Inhibition of HCV genotype 1b replicon.

With `CNC(=O)c1c(-c2ccc(F)cc2)oc2cc3c(cc12)C(C)N(C)C(=O)CN3S(C)(=O)=O` (stereo not drawn) [Compound B172], the EC50 fell in the range of 10 to 100 nM under setting [1] and 10 to 100 nM under setting [2].
Take `CNC(=O)c1c(-c2ccc(F)cc2)oc2cc3c(cc12)C(C)OC(CN=[N+]=[N-])CN3S(C)(=O)=O` (stereo not drawn) [Compound B218]: the EC50 is no more than 10 nM under setting [1] and less than 10 nM under setting [2].
The like results for `CNC(=O)c1c(-c2ccc(F)cc2)oc2cc3c(cc12)C(C)N(C(=O)c1ccc(F)cc1)CCN3S(C)(=O)=O` (stereo not drawn) [Compound B134] were, in that order, 10 to 100 nM and 10 to 100 nM.
Turning to `CNC(=O)c1c(-c2ccc(F)cc2)oc2cc3c(cc12)C(C)n1nncc1CN3S(C)(=O)=O` (stereo not drawn) [Compound B138], the EC50 is no more than 10 nM under setting [1] and less than 10 nM under setting [2].
In the same order, the values of `CNC(=O)c1c(-c2ccc(Oc3ccc(F)cc3)cc2)oc2cc3c(cc12)C(C)OC1(CC1)CN3S(C)(=O)=O` (stereo not drawn) [Compound B178] are 10 to 100 nM and 10 to 100 nM.
On to `CNC(=O)c1c(-c2ccc(F)cc2)oc2cc3c(cc12)C(C)O[C@@H](c1ccc(F)cc1)CN3S(C)(=O)=O` (stereo partly drawn) [Compound B210], for which the EC50 lay within 10 to 100 nM under setting [1] and 10 to 100 nM under setting [2].
For the molecule `CNC(=O)c1c(-c2ccc(F)cc2)oc2cc3c(cc12)[C@@H](C)OC(C)(C)CN3S(C)(=O)=O` (single isomer, unassigned) [Compound B185], the EC50 under setting [2] was greater than 1000 nM.
As to `CNC(=O)c1c(-c2ccc(F)cc2)oc2cc3c(cc12)C(O)C(C)(C)CCN3S(C)(=O)=O` (stereo not drawn) [Compound B123], the EC50 reads like this: under setting [1], 10 to 100 nM; under setting [2], 10 to 100 nM.
Take `CNC(=O)c1c(-c2ccc(Oc3ccccc3F)cc2)nn2cc3c(cc12)C(C)CCCN3S(C)(=O)=O` (stereo not drawn) [Compound B95]: the EC50 under setting [2] was 100 to 1000 nM.
Turning to `CNC(=O)c1c(-c2ccc(Oc3ccc(F)cc3)cc2)oc2cc3c(cc12)C(C)CCCN3S(C)(=O)=O` (stereo not drawn) [Compound B47], the EC50 fell in the range of 10 to 100 nM under setting [1] and 10 to 100 nM under setting [2].
`[2H]C([2H])([2H])NC(=O)c1c(-c2ccc(F)cc2)nn2cc3c(cc12)CCCCCN3S(C)(=O)=O` [Compound B126]: under setting [2], the EC50 lay in the range of 10 to 100 nM.
In the case of `CNC(=O)c1c(-c2ccc(F)cc2)oc2cc3c(cc12)[C@H](C)O[C@H](CCO)CN3S(C)(=O)=O` [Compound B230], the EC50 by setting is: under setting [1], 10 to 100 nM; under setting [2], 10 to 100 nM.
As to `CNC(=O)c1c(-c2ccc(F)cc2)oc2cc3c(cc12)C(C)OC1(CC1)CN3S(C)(=O)=O` (stereo not drawn) [Compound B188], the EC50 by setting is: under setting [1], 10 to 100 nM; under setting [2], 10 to 100 nM.
For the molecule `CNC(=O)c1c(-c2ccc(Oc3ccc(F)cc3)cc2)oc2cc3c(cc12)[C@H](C)O[C@H](COC(=O)[C@@H](N)C(C)C)CN3S(C)(=O)=O` [Compound B237], the EC50 reads like this: under setting [1], no more than 10 nM; under setting [2], less than 10 nM.
The like results for `CNC(=O)c1c(-c2ccc(F)cc2)oc2cc3c(cc12)C(C)OC(C(=O)N1CCCC1)CN3S(C)(=O)=O` (stereo not drawn) [Compound B227] were, in that order, 10 to 100 nM and 10 to 100 nM.
In the same order, the values of `CNC(=O)c1c(-c2ccc(F)cc2)oc2cc3c(cc12)C(C)N(CC(F)F)CCN3S(C)(=O)=O` (stereo not drawn) [Compound B139] are no more than 10 nM and less than 10 nM.
As for `CC1CCCN(S(C)(=O)=O)c2cc3oc(-c4ccc(Oc5ccc(F)cc5)cc4)c(-c4ncc[nH]4)c3cc21` (stereo not drawn) [Compound B198], the EC50 under setting [1] was no more than 10 nM and the EC50 under setting [2] was less than 10 nM.
As for `CNC(=O)c1c(-c2ccc(F)cc2)oc2cc3c(cc12)[C@@H](C)O[C@H](CO)CN3S(C)(=O)=O` [Compound B217], the EC50 under setting [1] fell in the range of 10 to 100 nM and the EC50 under setting [2] lay in the range of 10 to 100 nM.
In the case of `CNC(=O)c1c(-c2ccc(F)cc2)oc2cc3c(cc12)[C@H](C)N1CCC[C@@H]1CN3S(C)(=O)=O` (single isomer, unassigned) [Compound B131], the EC50 runs as follows: under setting [1], no more than 10 nM; under setting [2], less than 10 nM.
For `CS(=O)(=O)N1CCCCc2cc3c(-c4ncn[nH]4)c(-c4ccc(F)cc4)oc3cc21` [Compound B58], the EC50 under setting [2] lay within 100 to 1000 nM.
Take `CNC(=O)c1c(-c2ccc(Oc3ccc(F)cc3)cc2)oc2cc3c(cc12)C(C)n1nncc1CN3S(C)(=O)=O` (stereo not drawn) [Compound B158]: the EC50 is no more than 10 nM under setting [1] and less than 10 nM under setting [2].
Consider `CNC(=O)c1c(-c2ccc(F)cc2)nn2cc3c(cc12)C(C)CCCN3S(C)(=O)=O` (stereo not drawn) [Compound B50], for which the EC50 under setting [2] lay within 100 to 1000 nM.
`CNC(=O)c1c(-c2ccc(F)cc2)oc2cc3c(cc12)CCCCCN3S(C)(=O)=O` [Compound B20]: the EC50 was no more than 10 nM under setting [1] and less than 10 nM under setting [2].
In the case of `CNC(=O)c1c(-c2ccc(Oc3ccc(F)cc3)cc2)oc2cc3c(cc12)[C@@H](C)N(C)C(=O)CN3S(C)(=O)=O` (single isomer, unassigned) [Compound B182], the EC50 under setting [2] lay in the range of 100 to 1000 nM.
For `CNC(=O)c1c(-c2ccc(F)cc2)nc2cc3c(cn12)C(C)=CCCO3` [Compound B30], the EC50 under setting [2] was greater than 1000 nM.
Turning to `CNC(=O)c1c(-c2ccc(Oc3ccc(F)cc3)cc2)oc2cc3c(cc12)[C@@H](C)O[C@@H](CS(C)(=O)=O)CN3S(C)(=O)=O` [Compound B206], the EC50 under setting [2] fell in the range of 100 to 1000 nM.
On the same count and under the same terms, for `CNC(=O)c1c(-c2ccc(Br)cc2)nn2cc3c(cc12)C(C)CCCN3S(C)(=O)=O` (stereo not drawn) [Compound B89] the value was 10 to 100 nM.
In the case of `CNC(=O)c1c(-c2ccc(F)cc2)oc2cc3c(cc12)C(C)OC(C)CN3S(C)(=O)=O` (stereo not drawn) [Compound B190], the EC50 is no more than 10 nM under setting [1] and less than 10 nM under setting [2].
As for `CNC(=O)c1c(-c2ccc(F)cc2)oc2cc3c(cc12)C(O)CCCCN3S(C)(=O)=O` (stereo not drawn) [Compound B88], the EC50 under setting [2] lay in the range of 100 to 1000 nM.
For `CNC(=O)c1c(-c2ccc(F)cc2)oc2cc3c(cc12)[C@H](C)O[C@@H](CCO)CN3S(C)(=O)=O` [Compound B231], the EC50 was in the range of 10 to 100 nM under setting [1] and 10 to 100 nM under setting [2].
On to `CNC(=O)c1c(-c2ccc(F)cc2)oc2cc3c(cc12)C(C)OC(CO)CN3S(C)(=O)=O` (stereo not drawn) [Compound B195], for which the EC50 lay within 10 to 100 nM under setting [1] and 10 to 100 nM under setting [2].
As for `CNC(=O)c1c(-c2ccc(Oc3ccccc3)cc2)nn2cc3c(cc12)C(C)CCCN3S(C)(=O)=O` (stereo not drawn) [Compound B90], the EC50 under setting [2] fell in the range of 100 to 1000 nM.
Regarding `CNC(=O)c1c(-c2ccc(F)cc2)oc2cc3c(cc12)[C@@H](C)c1ccccc1CN3S(C)(=O)=O` (single isomer, unassigned) [Compound B204], the EC50 reads like this: under setting [1], 10 to 100 nM; under setting [2], 10 to 100 nM.
In the case of `CNC(=O)c1c(-c2ccc(F)cc2)oc2cc3c(cc12)C(C(F)(F)F)OCCN3S(C)(=O)=O` (stereo not drawn) [Compound B148], the EC50 under setting [1] is no more than 10 nM and the EC50 under setting [2] was less than 10 nM.
On to `CNC(=O)c1c(-c2ccc(F)cc2)oc2cc3c(cc12)C(C)OC(CNC(=O)OC)CN3S(C)(=O)=O` (stereo not drawn) [Compound B221], for which the EC50 under setting [1] is no more than 10 nM and the EC50 under setting [2] was less than 10 nM.
In the case of `CNC(=O)c1c(-c2ccc(F)cc2)oc2cc3c(cc12)C(C)N(S(C)(=O)=O)CCN3S(C)(=O)=O` (stereo not drawn) [Compound B157], the EC50 by setting is: under setting [1], 10 to 100 nM; under setting [2], 10 to 100 nM.
Take `CC1c2cc3c(-c4ncc[nH]4)c(-c4ccc(Oc5ccc(F)cc5)cc4)oc3cc2N(S(C)(=O)=O)CCN1C` (stereo not drawn) [Compound B166]: the EC50 reads like this: under setting [1], 10 to 100 nM; under setting [2], 10 to 100 nM.
Turning to `CNC(=O)c1c(-c2ccc(F)cc2)oc2cc3c(cc12)C1CC1CCN3S(C)(=O)=O` (stereo not drawn) [Compound B127], the EC50 is no more than 10 nM under setting [1] and less than 10 nM under setting [2].
In the same order, the values of `[2H]C([2H])([2H])NC(=O)c1c(-c2ccc(F)cc2)oc2cc3c(cc12)C1CC1CCN3S(C)(=O)=O` (stereo not drawn) [Compound B128] are no more than 10 nM and less than 10 nM.
In the same order, the values of `CNC(=O)c1c(-c2ccc(F)cc2)oc2cc3c(cc12)CCc1ccccc1CN3S(C)(=O)=O` [Compound B200] are 10 to 100 nM and 10 to 100 nM.
For the molecule `CNC(=O)c1c(-c2ccc(Oc3ccc(F)cc3)cc2)oc2cc3c(cc12)C=CCCN3S(C)(=O)=O` [Compound B135], under setting [2], the EC50 is 100 to 1000 nM.
For the molecule `CNC(=O)c1c(-c2ccc(F)cc2)oc2cc3c(cc12)C(C)c1ccccc1CN3S(C)(=O)=O` (stereo not drawn) [Compound B199], the EC50 by setting is: under setting [1], 10 to 100 nM; under setting [2], 10 to 100 nM.
For `CNC(=O)c1c(-c2ccc(F)cc2)nn2cc3c(cc12)[C@H](C)CCCN3S(C)(=O)=O` (single isomer, unassigned) [Compound B52], under setting [2], the EC50 was in the range of 100 to 1000 nM.
Take `CNC(=O)c1c(-c2ccc(F)cc2)oc2cc3c(cc12)[C@@H](C)N(C)C(=O)CN3S(C)(=O)=O` (single isomer, unassigned) [Compound B180]: the EC50 was in the range of 10 to 100 nM under setting [1] and 10 to 100 nM under setting [2].
On to `CNC(=O)c1c(-c2ccc(F)cc2)oc2cc3c(cc12)[C@@H](C)OC1(CC1)CN3S(C)(=O)=O` (single isomer, unassigned) [Compound B194], for which the EC50 under setting [2] lay in the range of 100 to 1000 nM.
As to `CCN1CCN(S(C)(=O)=O)c2cc3oc(-c4ccc(F)cc4)c(C(=O)NC)c3cc2C1C` (stereo not drawn) [Compound B144], the EC50 was in the range of 10 to 100 nM under setting [1] and 10 to 100 nM under setting [2].
Take `CNC(=O)c1c(-c2ccc(Oc3ccc(F)cc3)cc2)oc2cc3c(cc12)[C@@H](C)OC(C)(C)CN3S(C)(=O)=O` (single isomer, unassigned) [Compound B177]: under setting [2], the EC50 was in the range of 100 to 1000 nM.
On to `[2H]C([2H])([2H])NC(=O)c1c(-c2ccc(Oc3ccc(F)cc3)cc2)oc2cc3c(cc12)C(C)N(C)CCN3S(C)(=O)=O` (stereo not drawn) [Compound B160], for which the EC50 was 10 to 100 nM under setting [1] and 10 to 100 nM under setting [2].
